According to patent US10717799B2, “Copolymers as excipients for effective solubilization of poorly water-soluble substances from solid mixtures” (Dow Global Technologies LLC, priority 2015, dated 2020):
Values after ≈ are worked out from the molar mass of the structure shown.

test: Supersaturation (maintenance) test with Nilutamide; conditions: phosphate buffer saline with 0.5 wt. % FaSSIF, 37 °C, pH 6.5, aqueous with cosolvent or surfactant or cyclodextrin, kinetic from dmso stock

Row | solubility at 30 min | solubility at 90 min | solubility at 180 min | Molecule
1 | 0.473 mg/mL (≈ 1490 µM) | 0.364 mg/mL (≈ 1150 µM) | 0.308 mg/mL (≈ 971 µM) | CC1(C)NC(=O)N(c2ccc([N+](=O)[O-])c(C(F)(F)F)c2)C1=O [Nilutamide]

test: not given; conditions: pH 6.5

Row | c(30 min) concentration of solubilized Phenytoin | c(90 min) concentration of solubilized Phenytoin | c(180 min) concentration of solubilized Phenytoin | Molecule
2 | 172 mg/L | 197 mg/L | 137 mg/L | poly-[(N,N-diethylacrylamide)-co-(N,N-dimethylacrylamide)] [Example 5-1]
3 | 319 mg/L | 322 mg/L | 223 mg/L | poly-[(N,N-diethylacrylamide)-co-(N,N-dimethylacrylamide)] [Example 5-2]
4 | 595 mg/L | 413 mg/L | 257 mg/L | poly-[(N,N-diethylacrylamide)-co-(N,N-dimethylacrylamide)] [Example 5-3]
5 | 646 mg/L | 667 mg/L | 591 mg/L | poly-[(N,N-diethylacrylamide)-co-(N,N-dimethylacrylamide)] [Example 5-4]
6 | 348 mg/L | 359 mg/L | 295 mg/L | poly-[(N,N-diethylacrylamide)-co-(N,N-dimethylacrylamide)] [Example 5-5]

More lines, now with the values behind:

Row | Molecule | c(30 min) concentration of solubilized Phenytoin | c(90 min) concentration of solubilized Phenytoin | c(180 min) concentration of solubilized Phenytoin
7 | poly-[(N-isopropylacrylamide)-co-(N,N-dimethylacrylamide)] [Example 1-1] | 1,208 mg/L | 1,024 mg/L | 1,104 mg/L
8 | poly-[(N-isopropylacrylamide)-co-(N,N-dimethylacrylamide)] [Example 1-3] | 992 mg/L | 794 mg/L | 876 mg/L
9 | poly-[(N-isopropylacrylamide)-co-(N,N-dimethylacrylamide)] [Example 1-4] | 1,066 mg/L | 758 mg/L | 936 mg/L
10 | poly-[(N-isopropylacrylamide)-co-(N,N-dimethylacrylamide)] [Example 1-5] | 942 mg/L | 759 mg/L | 823 mg/L
11 | poly-[(N-isopropylacrylamide)-co-(N,N-dimethylacrylamide)] [Example 1-6] | 962 mg/L | 649 mg/L | 875 mg/L
12 | poly-[(N-isopropylacrylamide)-co-(N,N-dimethylacrylamide)] [Example 1-7] | 156 mg/L | 137 mg/L | 145 mg/L
13 | poly-[(N-isopropylacrylamide)-co-(N,N-dimethylacrylamide)] [Example 1-8] | 183 mg/L | 173 mg/L | 184 mg/L
14 | poly-[(N-isopropylacrylamide)-co-(N,N-dimethylacrylamide)] [Example 1-9] | 301 mg/L | 266 mg/L | 265 mg/L
15 | poly-[(N-isopropylacrylamide)-co-(N,N-dimethylacrylamide)] [Example 1-10] | 392 mg/L | 281 mg/L | 255 mg/L
16 | poly-[(N-isopropylacrylamide)-co-(N,N-dimethylacrylamide)] [Example 1-11] | 895 mg/L | 343 mg/L | 300 mg/L
17 | poly-[(N-isopropylacrylamide)-co-(N,N-dimethylacrylamide)] [Example 1-15] | 479 mg/L | 455 mg/L | 409 mg/L
18 | poly-[(N-isopropylacrylamide)-co-(N,N-dimethylacrylamide)] [Example 1-16] | 413 mg/L | 379 mg/L | 407 mg/L

test: physchem; conditions: 37 °C, pH 6.5, aqueous with cosolvent or surfactant or cyclodextrin, kinetic from dmso stock

Row | solubility at 30 min | solubility at 90 min | solubility at 180 min | Molecule
19 | 0.075 mg/mL (≈ 297 µM) | 0.07 mg/mL (≈ 277 µM) | 0.073 mg/mL (≈ 289 µM) | O=C1NC(=O)C(c2ccccc2)(c2ccccc2)N1 [Phenytoin]

test: not given; conditions: pH 6.5; remark: another data set of the same source

Row | solubilized drug concentration after continuous decrease | Molecule
20 | below 200 mg/L | poly-[(N-isopropylacrylamide)-co-(N,N-dimethylacrylamide)] [Example 1-17]

test: not given; conditions: pH 6.5; remark: another data set of the same source

Row | c(30 min) concentration of solubilized Nilutamide | c(90 min) concentration of solubilized Nilutamide | c(180 min) concentration of solubilized Nilutamide | Molecule
21 | 828 mg/L | 833 mg/L | 848 mg/L | poly-[(N-isopropylacrylamide)-co-(N,N-dimethylacrylamide)] [Example 1-15]

test: physchem; conditions: 37 °C, pH 6.5, fassif, thermodynamic from solid

Row | solubility at 4 min | Molecule
22 | ~0.05 mg/mL (≈ 198 µM) | O=C1NC(=O)C(c2ccccc2)(c2ccccc2)N1 [Phenytoin]
